Laboratory results: the NIST ThermoML archive (doi:10.1021/acs.jced.6b00455)

Experiment: mn = molality of the nth substance listed, in mol/kg
Conditions: 101 kPa, Liquid, Alternating current cell with electrodes

C[N+](C)(C)CCO.O=C([O-])C(F)(F)C(F)(F)C(F)(F)C(F)(F)C(F)(F)F [(2-hydroxyethyl)trimethylammonium perfluorohexanoate] + O
Conditions | electrical conductivity [S/m]
303.15 K, m1 = 0.008511 | 0.0638
303.15 K, m1 = 0.008888 | 0.0663
303.15 K, m1 = 0.009262 | 0.0691
303.15 K, m1 = 0.009766 | 0.0727
303.15 K, m1 = 0.01022 | 0.0763
308.15 K, m1 = 0.00032 | 0.0028
308.15 K, m1 = 0.000664 | 0.006
308.15 K, m1 = 0.000979 | 0.0086
308.15 K, m1 = 0.001217 | 0.0105
308.15 K, m1 = 0.001449 | 0.0125
308.15 K, m1 = 0.001666 | 0.0142
308.15 K, m1 = 0.002016 | 0.017
308.15 K, m1 = 0.00224 | 0.0188
308.15 K, m1 = 0.002547 | 0.0213
308.15 K, m1 = 0.002821 | 0.0235
308.15 K, m1 = 0.003227 | 0.0266
308.15 K, m1 = 0.003473 | 0.0285
308.15 K, m1 = 0.003909 | 0.0318
308.15 K, m1 = 0.004306 | 0.0348
308.15 K, m1 = 0.004503 | 0.0365
308.15 K, m1 = 0.004751 | 0.0383
308.15 K, m1 = 0.005079 | 0.0408
308.15 K, m1 = 0.005473 | 0.0437
308.15 K, m1 = 0.005677 | 0.0452
308.15 K, m1 = 0.005898 | 0.0468
308.15 K, m1 = 0.006135 | 0.0484
308.15 K, m1 = 0.006462 | 0.0505
308.15 K, m1 = 0.006775 | 0.0522
308.15 K, m1 = 0.006992 | 0.0537
308.15 K, m1 = 0.007243 | 0.0556
308.15 K, m1 = 0.00746 | 0.0572
308.15 K, m1 = 0.007893 | 0.0603
308.15 K, m1 = 0.008273 | 0.063
308.15 K, m1 = 0.008535 | 0.0647
308.15 K, m1 = 0.008941 | 0.0676
308.15 K, m1 = 0.009261 | 0.0697
308.15 K, m1 = 0.009516 | 0.0711
308.15 K, m1 = 0.009886 | 0.0734
308.15 K, m1 = 0.01025 | 0.076
313.15 K, m1 = 0.00043 | 0.0042
313.15 K, m1 = 0.000832 | 0.008
313.15 K, m1 = 0.001262 | 0.012
313.15 K, m1 = 0.001627 | 0.0157
313.15 K, m1 = 0.002033 | 0.0192
313.15 K, m1 = 0.00239 | 0.0224
313.15 K, m1 = 0.002657 | 0.0247
313.15 K, m1 = 0.002904 | 0.0268
313.15 K, m1 = 0.003178 | 0.0292
313.15 K, m1 = 0.003443 | 0.0314
313.15 K, m1 = 0.003771 | 0.0349
313.15 K, m1 = 0.004146 | 0.038
313.15 K, m1 = 0.004519 | 0.0412
313.15 K, m1 = 0.004784 | 0.0433
313.15 K, m1 = 0.005179 | 0.0467
313.15 K, m1 = 0.005436 | 0.0487
313.15 K, m1 = 0.005698 | 0.051
313.15 K, m1 = 0.006109 | 0.0544
313.15 K, m1 = 0.006403 | 0.0567
313.15 K, m1 = 0.006614 | 0.0584
313.15 K, m1 = 0.006889 | 0.0606
313.15 K, m1 = 0.007247 | 0.0637
313.15 K, m1 = 0.007657 | 0.0669
313.15 K, m1 = 0.008021 | 0.0699
313.15 K, m1 = 0.008353 | 0.0725
313.15 K, m1 = 0.0086 | 0.0744
313.15 K, m1 = 0.008852 | 0.0763
313.15 K, m1 = 0.009114 | 0.0783
313.15 K, m1 = 0.009356 | 0.0803
313.15 K, m1 = 0.009621 | 0.0823
313.15 K, m1 = 0.009883 | 0.0842
313.15 K, m1 = 0.01024 | 0.0869
313.15 K, m1 = 0.01049 | 0.0888
